The experiment addresses T1, recombinant autotaxin (Homo sapiens, UniProt Q13822).
T1 construct: made in house; host or cells: Hi5 insect cells (baculovirus)
The experiment can be described thus: Autotaxin test (enzyme test), Amplex Red fluorescence. It is filed as biochemical. The settings on record: substrate LPC 75 μM, Amplex Red detection, read-out: IC50 (autotaxin inhibition, enzyme test). The gist of the method:
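Recombinant human autotaxin from baculovirus/Hi5 (16 ng) was preincubated with compound 30 min at 22 °C. Reaction with 75 μM egg LPC ran 90 min at 37 °C. Released choline was coupled via alkaline phosphatase, choline oxidase and HRP to Amplex Red, read as resorufin fluorescence (ex485/em612) in kinetic mode.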
Usually IC50 stands for the point on the concentration scale where inhibition reaches its midpoint. On to `CCCCc1ccc(NC(=O)Nc2[nH]c(Cc3ccc(C(=O)N(C)CCC)o3)nc2C(N)=O)cc1` [Compound A90, 5-[3-(4-Butylphenyl)ureido]-2-[5-(methylpropyl-carbamoyl)furan-2-ylmethyl]-1H-imidazole-4-carboxamide], for which the IC50 is > 10 µM.

As for `CCCCc1ccc(NC(=O)Nc2[nH]c(Cc3ccc(C(=O)N4CCC(CCO)CC4)o3)nc2C(N)=O)cc1` [Compound A91, 5-[3-(4-Butylphenyl)ureido]-2-{5-[4-(2-hydroxy-ethyl)piperidine-1-carbonyl]furan-2-ylmethyl}-1H-imidazole-4-carboxamide], the 50% inhibitory concentration (IC50) lay within 1 to 10 µM.

Consider `CC(C)c1ccccc1NC(=O)Nc1[nH]c(Cc2ccc(C(=O)O)cc2)nc1C(N)=O` [Compound A92, 4-{4-Carbamoyl-5-[3-(2-isopropylphenyl)ureido]-1H-imidazol-2-ylmethyl}benzoic acid], for which the half-inhibitory concentration (IC50) is > 10 µM.

Consider `NC(=O)c1nc(Cc2ccc(C(=O)O)cc2)[nH]c1NC(=O)Nc1ccc(OC(F)(F)F)cc1` [Compound A93, 4-{4-Carbamoyl-5-[3-(4-trifluoromethoxyphenyl)-ureido]-1H-imidazol-2-ylmethyl}benzoic acid], for which the IC50 was 1 to 10 µM.

In the case of `CCCCc1ccc(NC(=O)Nc2[nH]c(Cc3ccc(C(=O)N4CCOCC4)cc3)nc2C(N)=O)cc1` [Compound A94, 5-[3-(4-Butylphenyl)ureido]-2-[4-(morpholine-4-carbonyl)benzyl]-1H-imidazole-4-carboxamide], the IC50 is 1 to 10 µM.

For `CCCCOc1ccc(NC(=O)Nc2[nH]c(Cc3ccc(O)cc3)nc2C(N)=O)cc1` [Compound A95, 5-[3-(4-Butoxyphenyl)ureido]-2-(4-hydroxy-benzyl)-1H-imidazole-4-carboxamides], the half-inhibitory concentration (IC50) was > 10 µM.

As for `NC(=O)c1nc(Cc2ccc([N+](=O)[O-])cc2)[nH]c1NC(=O)Nc1ccc(C(F)(F)F)cc1` [Compound A96, 2-(4-Nitrobenzyl)-5-[3-(4-trifluoromethylphenyl)-ureido]-1H-imidazole-4-carboxamide], the IC50 was > 10 µM.

With `NC(=O)c1nc(Cc2ccc(N)cc2)[nH]c1NC(=O)Nc1ccc(C(F)(F)F)cc1` [Compound A97, 2-(4-aminobenzyl)-5-[3-(4-trifluoromethylphenyl)-ureido]-1H-imidazole-4-carboxamide], the IC50 was 1 to 10 µM.

With `COC(=O)c1ccc(Cc2nc(C(N)=O)c(NC(=O)Nc3ccc(C(F)(F)F)cc3)[nH]2)cc1` [Compound A98, Methyl 4-{4-carbamoyl-5-[3-(4-trifluoromethyl-phenyl)ureido]-1H-imidazol-2-ylmethyl}benzoate], the IC50 was > 10 µM.

Regarding `COC(=O)c1ccc(Cc2nc(C(N)=O)c(NC(=O)Nc3ccc(OC(F)(F)F)cc3)[nH]2)cc1` [Compound A99, Methyl 4-{4-carbamoyl-5-[3-(4-trifluoromethoxy-phenyl)ureido]-1H-imidazol-2-ylmethyl}benzoate], the IC50 was > 10 µM.

Consider `CCCCOc1ccc(NC(=O)Nc2[nH]c(Cc3ccc(CO)cc3)nc2C(N)=O)cc1` [Compound A100, 5-[3-(4-butoxyphenyl)ureido]-2-(4-hydroxy-methylbenzyl)-1H-imidazole-4-carboxamide], for which the IC50 was > 10 µM.

In the case of `Cc1oc(-c2ccccc2)cc1NC(=O)Nc1[nH]c(Cc2ccc(C(=O)O)cc2)nc1C(N)=O` [Compound A101, 4-{4-Carbamoyl-5-[3-(2-methyl-5-phenylfuran-3-yl)ureido]-1H-imidazol-2-ylmethyl}benzoic acid], the IC50 is > 10 µM.

In the case of `NC(=O)c1nc(Cc2ccc(C(=O)O)cc2)[nH]c1NC(=O)Nc1cccs1` [Compound A102, 4-[4-Carbamoyl-5-(3-thiophen-2-ylureido)-1H-imidazol-2-ylmethyl]benzoic acid], the IC50 lay within 1 to 10 µM.

For `NC(=O)c1nc(Cc2ccc(C(=O)NCCc3c[nH]cn3)cc2)[nH]c1NC(=O)Nc1ccc(C(F)(F)F)cc1` [Compound A103, 2-{4-[2-(1H-Imidazol-4-yl)ethylcarbamoyl]benzyl}-5-[3-(4-trifluoromethylphenyl)ureido]-1H-imidazole-4-carboxamide], the IC50 was > 10 µM.
